Measurements from ChEMBL document CHEMBL5465560, “Selectivity Literature for EUbOPEN Chemogenomic Library” (2024).

What was measured:
[1] = target: Dual specificity protein kinase CLK4 (Homo sapiens, UniProt Q9HAZ1); assay: Selectivity interaction (LanthaScreen Eu Kinase Binding Assay) EUB0001632a CLK4; conditions: at 10 µM
[2] = tested on: Phosphatidylinositol 4,5-bisphosphate 3-kinase catalytic subunit alpha isoform (Homo sapiens), P42336 [C420R]; conditions: at 10 µM
[3] = target: T1, Serine/threonine-protein kinase D3 (Homo sapiens) (UniProt O94806); assay: Selectivity interaction (ActivX KiNativ screen (kinase selectivity in THP-1 cell lysates)) EUB0000639a PRKD3; assay type: subcellular; conditions: lysate, at 0.04 µM
T1 sequence (whole entry): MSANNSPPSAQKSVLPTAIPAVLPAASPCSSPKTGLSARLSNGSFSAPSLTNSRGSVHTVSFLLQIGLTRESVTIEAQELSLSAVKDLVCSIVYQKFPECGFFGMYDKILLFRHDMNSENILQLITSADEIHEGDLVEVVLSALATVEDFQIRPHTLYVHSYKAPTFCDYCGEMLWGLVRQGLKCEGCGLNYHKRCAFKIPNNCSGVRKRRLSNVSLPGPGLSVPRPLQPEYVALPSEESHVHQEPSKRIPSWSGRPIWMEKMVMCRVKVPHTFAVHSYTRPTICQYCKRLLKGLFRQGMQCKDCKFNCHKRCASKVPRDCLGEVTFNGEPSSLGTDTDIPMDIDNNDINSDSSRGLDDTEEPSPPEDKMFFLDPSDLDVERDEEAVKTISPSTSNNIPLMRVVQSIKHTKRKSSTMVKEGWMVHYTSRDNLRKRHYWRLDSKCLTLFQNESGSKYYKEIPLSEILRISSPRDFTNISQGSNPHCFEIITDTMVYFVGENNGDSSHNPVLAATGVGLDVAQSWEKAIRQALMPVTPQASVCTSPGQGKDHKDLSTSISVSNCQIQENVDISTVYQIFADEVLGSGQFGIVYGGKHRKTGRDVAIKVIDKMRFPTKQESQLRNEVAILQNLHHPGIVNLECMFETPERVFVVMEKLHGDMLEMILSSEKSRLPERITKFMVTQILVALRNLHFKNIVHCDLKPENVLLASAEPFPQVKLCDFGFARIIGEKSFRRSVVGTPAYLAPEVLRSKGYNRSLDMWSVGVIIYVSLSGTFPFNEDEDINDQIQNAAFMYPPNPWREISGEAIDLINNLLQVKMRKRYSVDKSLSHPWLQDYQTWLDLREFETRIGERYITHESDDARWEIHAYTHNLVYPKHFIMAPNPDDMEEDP

[4] = target: T2, Phosphorylase b kinase gamma catalytic chain, liver/testis isoform (Homo sapiens) (UniProt P15735); assay: Selectivity interaction (Kinase screening (Nanosyn)) EUB0000604a PHKG2
T2 sequence (whole entry): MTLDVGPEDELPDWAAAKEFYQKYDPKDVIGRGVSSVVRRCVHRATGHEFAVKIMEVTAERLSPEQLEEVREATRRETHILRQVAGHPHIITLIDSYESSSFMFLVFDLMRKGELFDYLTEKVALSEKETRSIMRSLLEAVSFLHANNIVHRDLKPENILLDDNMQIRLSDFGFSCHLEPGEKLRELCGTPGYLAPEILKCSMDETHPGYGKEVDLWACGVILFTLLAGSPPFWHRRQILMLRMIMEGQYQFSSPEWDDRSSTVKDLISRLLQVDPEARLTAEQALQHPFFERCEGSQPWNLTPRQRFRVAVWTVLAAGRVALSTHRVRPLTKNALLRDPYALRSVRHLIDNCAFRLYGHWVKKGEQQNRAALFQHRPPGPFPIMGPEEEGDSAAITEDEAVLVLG

[5] = target: Mitogen-activated protein kinase kinase kinase 10 (Homo sapiens) (UniProt Q02779); assay: Selectivity interaction (Kinase panel (KiNativ target engagement assay in Jurkat cells)) EUB0001635a MAP3K10; assay type: cell-based; conditions: Selectivity number of off-targets 0.0, Selectivity number of targets 233.0, Source Knowledge https://www.sciencedirect.com/science/article/pii/S2451945619300674?via%3Dihub, at 1 µM
Chain of Mitogen-activated protein kinase kinase kinase 10 (Homo sapiens) (Q02779 whole entry, looked up): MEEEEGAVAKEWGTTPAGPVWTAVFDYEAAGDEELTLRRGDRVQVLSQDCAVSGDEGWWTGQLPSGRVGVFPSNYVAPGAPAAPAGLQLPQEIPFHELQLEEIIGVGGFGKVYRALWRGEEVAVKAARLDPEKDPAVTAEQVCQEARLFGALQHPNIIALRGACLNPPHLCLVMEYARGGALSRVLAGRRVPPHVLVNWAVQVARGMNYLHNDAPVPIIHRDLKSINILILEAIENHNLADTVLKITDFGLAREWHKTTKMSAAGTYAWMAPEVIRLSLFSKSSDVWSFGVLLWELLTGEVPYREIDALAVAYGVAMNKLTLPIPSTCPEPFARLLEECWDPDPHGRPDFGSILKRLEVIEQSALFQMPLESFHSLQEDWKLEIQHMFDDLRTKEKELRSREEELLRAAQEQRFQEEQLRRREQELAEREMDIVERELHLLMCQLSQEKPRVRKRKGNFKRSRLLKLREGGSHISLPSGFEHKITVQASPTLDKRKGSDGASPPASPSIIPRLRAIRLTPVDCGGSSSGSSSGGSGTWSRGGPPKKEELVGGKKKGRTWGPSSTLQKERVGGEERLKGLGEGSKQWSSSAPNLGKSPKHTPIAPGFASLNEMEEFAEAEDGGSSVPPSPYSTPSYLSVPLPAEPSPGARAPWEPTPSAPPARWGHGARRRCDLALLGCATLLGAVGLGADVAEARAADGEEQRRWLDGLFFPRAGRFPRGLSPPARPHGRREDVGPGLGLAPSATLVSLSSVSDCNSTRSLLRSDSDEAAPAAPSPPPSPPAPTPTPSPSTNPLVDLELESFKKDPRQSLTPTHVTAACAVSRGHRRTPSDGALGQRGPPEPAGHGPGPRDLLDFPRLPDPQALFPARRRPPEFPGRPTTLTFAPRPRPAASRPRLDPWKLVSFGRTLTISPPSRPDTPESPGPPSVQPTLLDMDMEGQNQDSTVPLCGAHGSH

[6] = target: T3, Rhodopsin kinase GRK1 (Homo sapiens) (UniProt Q15835); assay: Selectivity interaction (KinomeScan (DiscoverX)) EUB0000229b GRK1; conditions: at 10 µM
T3 sequence (whole entry): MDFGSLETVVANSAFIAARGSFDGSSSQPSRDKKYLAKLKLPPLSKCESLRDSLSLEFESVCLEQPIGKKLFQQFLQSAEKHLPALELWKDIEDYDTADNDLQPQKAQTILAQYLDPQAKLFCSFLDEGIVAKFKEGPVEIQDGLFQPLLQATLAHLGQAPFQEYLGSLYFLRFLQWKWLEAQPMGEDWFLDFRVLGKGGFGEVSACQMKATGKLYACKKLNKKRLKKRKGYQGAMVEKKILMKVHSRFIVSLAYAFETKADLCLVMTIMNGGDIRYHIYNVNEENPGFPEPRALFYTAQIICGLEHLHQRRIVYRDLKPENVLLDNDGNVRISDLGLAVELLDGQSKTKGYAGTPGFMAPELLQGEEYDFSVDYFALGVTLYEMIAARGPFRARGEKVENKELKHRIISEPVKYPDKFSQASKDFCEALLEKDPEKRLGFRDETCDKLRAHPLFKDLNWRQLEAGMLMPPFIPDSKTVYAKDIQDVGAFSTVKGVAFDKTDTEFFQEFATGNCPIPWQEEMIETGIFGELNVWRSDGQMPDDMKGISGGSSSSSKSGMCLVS

[7] = target: Phosphatidylinositol 4-kinase beta (Homo sapiens, UniProt Q9UBF8); conditions: at 10 µM
Chain of Phosphatidylinositol 4-kinase beta (Q9UBF8 2-816 limits assumed): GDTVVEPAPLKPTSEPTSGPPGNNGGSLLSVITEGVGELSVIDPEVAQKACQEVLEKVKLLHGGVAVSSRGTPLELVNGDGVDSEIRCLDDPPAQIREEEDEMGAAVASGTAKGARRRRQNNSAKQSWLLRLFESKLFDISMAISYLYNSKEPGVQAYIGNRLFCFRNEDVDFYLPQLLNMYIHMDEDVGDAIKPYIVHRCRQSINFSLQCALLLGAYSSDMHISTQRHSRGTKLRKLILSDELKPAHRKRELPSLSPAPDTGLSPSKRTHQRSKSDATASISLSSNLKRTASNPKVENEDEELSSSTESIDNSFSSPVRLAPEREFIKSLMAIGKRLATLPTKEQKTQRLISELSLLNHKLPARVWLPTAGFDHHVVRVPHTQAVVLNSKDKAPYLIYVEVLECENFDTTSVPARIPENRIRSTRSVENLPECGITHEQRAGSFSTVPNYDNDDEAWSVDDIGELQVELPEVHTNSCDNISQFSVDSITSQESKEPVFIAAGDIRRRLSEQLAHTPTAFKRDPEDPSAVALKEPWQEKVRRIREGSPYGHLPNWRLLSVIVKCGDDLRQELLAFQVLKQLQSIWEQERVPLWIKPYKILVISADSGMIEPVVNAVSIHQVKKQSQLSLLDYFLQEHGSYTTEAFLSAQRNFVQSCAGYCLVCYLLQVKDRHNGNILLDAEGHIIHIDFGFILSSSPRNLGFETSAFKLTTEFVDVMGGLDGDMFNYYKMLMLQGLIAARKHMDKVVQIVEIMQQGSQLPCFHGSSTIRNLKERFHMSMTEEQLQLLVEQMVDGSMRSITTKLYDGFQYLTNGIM

[8] = target: Serine/threonine-protein kinase Nek6 (Homo sapiens) (UniProt Q9HC98); assay: Selectivity interaction (KinomeScan (DiscoverX)) EUB0000618a NEK6; conditions: at 10 µM
Chain of Serine/threonine-protein kinase Nek6 (Homo sapiens) (Q9HC98 whole entry): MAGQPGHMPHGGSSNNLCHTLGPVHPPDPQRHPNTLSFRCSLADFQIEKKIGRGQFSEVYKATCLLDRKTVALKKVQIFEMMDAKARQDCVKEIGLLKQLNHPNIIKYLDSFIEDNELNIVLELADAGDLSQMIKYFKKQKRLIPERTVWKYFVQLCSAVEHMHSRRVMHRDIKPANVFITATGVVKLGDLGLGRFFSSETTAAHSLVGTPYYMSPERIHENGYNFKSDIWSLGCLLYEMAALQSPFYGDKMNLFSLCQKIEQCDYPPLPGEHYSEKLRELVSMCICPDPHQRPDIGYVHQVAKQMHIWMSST

[9] = target: Protein-tyrosine kinase 2-beta (Homo sapiens) (UniProt Q14289); assay: Selectivity interaction (ActivX KiNativ screen (ex vivo kinase selectivity in human PBMCs)) EUB0001619a PTK2B; assay type: cell-based; conditions: PBMC, at 1 µM
Chain of Protein-tyrosine kinase 2-beta (Homo sapiens) (Q14289 whole entry, looked up): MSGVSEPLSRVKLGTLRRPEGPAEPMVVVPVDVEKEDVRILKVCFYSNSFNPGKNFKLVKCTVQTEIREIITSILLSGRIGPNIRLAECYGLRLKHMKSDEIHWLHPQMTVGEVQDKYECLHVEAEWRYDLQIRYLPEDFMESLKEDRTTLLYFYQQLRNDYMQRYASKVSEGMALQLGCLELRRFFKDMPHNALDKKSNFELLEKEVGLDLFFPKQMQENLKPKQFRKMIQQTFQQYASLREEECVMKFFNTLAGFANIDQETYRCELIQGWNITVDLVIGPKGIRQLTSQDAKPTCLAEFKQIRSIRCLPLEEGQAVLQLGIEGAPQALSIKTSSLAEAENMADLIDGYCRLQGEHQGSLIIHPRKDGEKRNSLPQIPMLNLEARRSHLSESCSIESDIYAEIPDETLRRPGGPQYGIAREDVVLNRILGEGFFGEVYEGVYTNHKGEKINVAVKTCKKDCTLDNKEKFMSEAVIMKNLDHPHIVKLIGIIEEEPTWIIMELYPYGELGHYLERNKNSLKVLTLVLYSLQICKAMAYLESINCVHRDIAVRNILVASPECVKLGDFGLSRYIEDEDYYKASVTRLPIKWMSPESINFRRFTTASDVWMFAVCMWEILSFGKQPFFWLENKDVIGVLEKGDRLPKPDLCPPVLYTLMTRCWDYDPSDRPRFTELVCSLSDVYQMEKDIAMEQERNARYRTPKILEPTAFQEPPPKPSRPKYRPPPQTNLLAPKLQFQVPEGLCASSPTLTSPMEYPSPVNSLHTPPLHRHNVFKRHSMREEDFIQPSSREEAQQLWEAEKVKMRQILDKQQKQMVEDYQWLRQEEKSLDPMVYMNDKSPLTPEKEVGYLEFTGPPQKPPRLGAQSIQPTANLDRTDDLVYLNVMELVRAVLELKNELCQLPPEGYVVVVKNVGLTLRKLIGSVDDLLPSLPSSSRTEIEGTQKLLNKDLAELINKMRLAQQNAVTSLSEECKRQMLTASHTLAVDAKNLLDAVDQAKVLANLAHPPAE

Chain of Phosphatidylinositol 4,5-bisphosphate 3-kinase catalytic subunit alpha isoform (Homo sapiens), P42336 [C420R] (P42336 whole entry C420R, canonical isoform): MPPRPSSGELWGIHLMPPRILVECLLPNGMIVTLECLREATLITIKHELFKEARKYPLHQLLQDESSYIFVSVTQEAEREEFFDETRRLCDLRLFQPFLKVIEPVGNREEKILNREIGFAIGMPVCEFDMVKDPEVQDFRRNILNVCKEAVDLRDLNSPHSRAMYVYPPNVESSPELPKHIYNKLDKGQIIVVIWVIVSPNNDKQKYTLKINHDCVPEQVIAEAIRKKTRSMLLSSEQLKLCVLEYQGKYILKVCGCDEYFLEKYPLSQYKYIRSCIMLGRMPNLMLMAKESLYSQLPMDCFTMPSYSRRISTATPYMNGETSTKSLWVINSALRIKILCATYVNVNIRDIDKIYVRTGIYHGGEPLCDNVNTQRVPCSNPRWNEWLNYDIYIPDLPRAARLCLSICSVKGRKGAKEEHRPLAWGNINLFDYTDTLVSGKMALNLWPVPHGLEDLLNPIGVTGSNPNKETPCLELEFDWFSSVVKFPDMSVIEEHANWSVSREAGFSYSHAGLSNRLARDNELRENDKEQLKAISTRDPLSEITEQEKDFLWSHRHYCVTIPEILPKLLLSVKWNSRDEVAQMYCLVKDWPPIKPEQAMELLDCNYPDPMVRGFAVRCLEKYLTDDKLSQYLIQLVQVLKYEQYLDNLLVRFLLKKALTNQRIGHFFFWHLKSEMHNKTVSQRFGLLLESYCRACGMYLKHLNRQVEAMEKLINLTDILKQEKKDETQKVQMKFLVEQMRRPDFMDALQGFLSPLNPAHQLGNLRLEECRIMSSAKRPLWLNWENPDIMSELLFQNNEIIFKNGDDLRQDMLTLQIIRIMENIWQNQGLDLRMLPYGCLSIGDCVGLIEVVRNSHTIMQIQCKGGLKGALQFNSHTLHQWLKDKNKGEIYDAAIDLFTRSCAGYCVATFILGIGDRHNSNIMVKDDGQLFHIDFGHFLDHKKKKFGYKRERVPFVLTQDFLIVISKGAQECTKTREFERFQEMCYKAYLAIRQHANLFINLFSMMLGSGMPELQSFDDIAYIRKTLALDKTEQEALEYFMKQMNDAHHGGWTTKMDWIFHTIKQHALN
Chain of Dual specificity protein kinase CLK4 (Q9HAZ1 whole entry, looked up, canonical isoform): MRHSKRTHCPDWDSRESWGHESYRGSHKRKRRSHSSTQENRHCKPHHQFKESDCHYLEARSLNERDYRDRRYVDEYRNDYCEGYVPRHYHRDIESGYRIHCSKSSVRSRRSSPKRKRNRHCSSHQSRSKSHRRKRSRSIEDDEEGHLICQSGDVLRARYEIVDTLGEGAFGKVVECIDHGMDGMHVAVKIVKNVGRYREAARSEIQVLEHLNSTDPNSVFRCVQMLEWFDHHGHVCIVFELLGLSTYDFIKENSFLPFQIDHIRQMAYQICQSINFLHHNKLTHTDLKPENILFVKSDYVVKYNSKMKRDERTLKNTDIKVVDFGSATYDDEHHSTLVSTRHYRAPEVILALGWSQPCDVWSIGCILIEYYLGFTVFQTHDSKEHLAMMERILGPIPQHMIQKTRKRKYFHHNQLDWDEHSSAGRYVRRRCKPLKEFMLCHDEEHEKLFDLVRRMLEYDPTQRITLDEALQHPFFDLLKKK

Cn1cc(-n2cnc3c(NCc4nc5cc(Cl)c(Cl)cc5[nH]4)nc(N4CCOCC4)nc32)cn1
% of inhibition [1]: 12.3%

CNC(=O)Nc1ccc(-c2nc(N3CC4CCC(C3)O4)c3cnn(C4CCC5(CC4)OCCO5)c3n2)cc1
% of control [2]: 11%

CC[C@@H]1[C@H](F)C(=O)N[C@@H]1COc1nccc2cc(C(N)=O)c(OC)cc12 [ZIMLOVISERTIB]
% of inhibition [3]: 3.3%

Cc1cnc(Nc2ccc(F)cc2Cl)nc1-c1c[nH]c(C(=O)N[C@H](CO)c2cccc(Cl)c2)c1
% of inhibition [4]: 4%

C=CC(=O)Nc1ccc(C(=O)Nc2[nH]nc3c2CN(C(=O)N[C@H](CN(C)C)c2ccccc2)C3(C)C)cc1
% of engagement [5]: -31.2%

COc1cc(N(C)c2ccnc3ccc(C(F)(F)F)cc23)cc(OC)c1OC
% binding [6]: 68%

Cc1cc([C@@H](C)Nc2ccccc2C(=O)O)c2nc(N3CCOCC3)cc(=O)n2c1 [AZD-6482]
% of control [7]: 100%

O[C@H]1CC[C@H](Nc2ncc3nc(Nc4c(F)cc(F)cc4F)n([C@H]4CCOC4)c3n2)CC1
% of control [8]: 100%

N#Cc1cccc(-c2c[nH]c3ncnc(N4CCOCC4)c23)c1
% of inhibition [9]: 3%
